Test results published in patent US10226536B2, “Polysaccharide therapeutic conjugates” (priority 2011, dated 2019).

Legend:
Rpe65−/− mice = test: Retinoid treatment in LCA mouse model with RPE65 deficiency; type: in vivo
From the text: (§1) We designed a polysaccharide therapeutic conjugate composition for the sustained release of 9-cis-retinyl esters to treat animal models of human retinal diseases, such as LCA. […] Unless initial high drug blood levels are unfavorable, this pharmacokinetic property could be beneficial because it relates to the therapeutic window, especially for drugs targeting peripheral tissues such as the retina through protein-mediated and protein-independent transport systems. A bolus dose could also establish a reversible depot of the drug in other tissues, thereby reducing the need for frequent dosing.

Lrat−/− mice [1] = settings: dark room reared Lrat−/− mice; 6 gavages of 0.12 mg each over two weeks; vs untreated control Lrat−/− mice; cited from earlier work
[2] = 9-cis-retinoid concentrations in plasma after gavage; type: in vivo, mouse
From the text: as §1

Lrat−/− mice [3] = test: Oral gavage of 9-cis-R-Ac in LCA mouse model with LRAT deficiency; type: in vivo
From the text: as §1

9-cis-retinoid concentrations in plasma ([2]; 5 hours after oral administration) | 9-cis-retinoid concentrations in plasma ([2]; after gavage) | Compound | visual function (Rpe65−/− mice; single dose, Rpe65−/− mice kept under laboratory lighting conditions) | ROS layer thickness (Lrat−/− mice [1]) | RPE-ROS interface (Lrat−/− mice [1]) | retinal morphology (Rpe65−/− mice; oral gavage, Rpe65−/− mice) | visual function (Rpe65−/− mice; oral gavage, Rpe65−/− mice) | retinal morphology (Lrat−/− mice [3]) | visual function (Lrat−/− mice [3])
 |  | CC1=C(/C=C/C(C)=C\C=C\C(C)=C\C=O)C(C)(C)CCC1 [9-cis-retinal] | rescued visual function for months |  |  |  |  |  | 
dropped markedly to low levels | increased rapidly to high levels | CC(=O)OC/C=C(C)/C=C/C=C(C)\C=C\C1=C(C)CCCC1(C)C [9-cis-R-Ac, 9-cis-retinyl acetate] |  | substantially thicker | closer apposition | preserves retinal morphology | improves visual function | preserves retinal morphology | improves visual function
